This is an account of results in patent US20180250280A1 (BAYER PHARMA AKTIENGESELLSCHAFT, priority 2015, published 2018).

The target of one assay is T1, human factor XIa (Homo sapiens, UniProt P03951).
T1 construct: purchased Kordia
Briefly: Measurement of FXIa inhibition (fluorogenic peptide substrate, AMC cleavage). The following applies: factor XIa from Kordia 0.45 nM; substrate Boc-Glu(OBzl)-Ala-Arg-AMC 10 μM; 30 min at 22° C.; in some cases averages from multiple determinations. The format is biochemical. How it is done:
The factor XIa inhibition of the substances according to the invention is determined using a biochemical test system which utilizes the reaction of a peptidic factor XIa substrate to determine the enzymatic activity of human factor XIa. Here, factor XIa cleaves from the peptic factor XIa substrate the C-terminal aminomethylcoumarin (AMC), the fluorescence of which is measured. The determinations are conducted in microtitre plates.
Test substances are dissolved in dimethyl sulfoxide and serially diluted in dimethyl sulfoxide (3000 μM to 0.0078 μM; resulting final concentrations in the test: 50 μM to 0.00013 μM). 1 μl of the diluted substance solutions is placed into each of the wells of white microtitre plates from Greiner (384 wells). 20 μl of assay buffer (50 mM of Tris/HCl pH 7.4; 100 mM of sodium chloride; 5 mM of calcium chloride; 0.1% of bovine serum albumin) and 20 μl of factor XIa from Kordia (0.45 nM in assay buffer) are then added successively. After 15 min of incubation, the enzyme reaction is started by addition of 20 μl of the factor XIa substrate Boc-Glu(OBzl)-Ala-Arg-AMC dissolved in assay buffer (10 μM in assay buffer) from Bachem, the mixture is incubated at room temperature (22° C.) for 30 min and fluorescence is then measured (excitation: 360 nm, emission: 460 nm). The measured emissions of the test batches with test substance are compared to those of control batches without test substance (only dimethyl sulfoxide instead of test substance in dimethyl sulfoxide), and IC50 values are calculated from the concentration/activity relationships. Activity data from this test are given in Table A below (in some cases as averages from multiple individual determinations): […]

The next assay concerns the target T2, human plasma kallikrein (Homo sapiens, UniProt P03952).
T2 construct: purchased Kordia
Briefly: Determination of the plasma kallikrein activity (fluorogenic peptide substrate, AMC cleavage). In kind it is biochemical. The note with it: plasma kallikrein from Kordia 0.6 nM; substrate H-Pro-Phe-Arg-AMC 10 μM; 30 min at 22° C.; in some cases averages from multiple determinations. How it is done: To determine the plasma kallikrein inhibition of the substances according to the invention, a biochemical test system is used which utilizes the reaction of a peptidic plasma kallikrein substrate to determine the enzymatic activity of human plasma kallikrein. Here, plasma kallikrein cleaves from the peptic plasma kallikrein substrate the C-terminal aminomethylcoumarin (AMC), the fluorescence of which is measured. The determinations are conducted in microtitre plates.
Test substances are dissolved in dimethyl sulfoxide and serially diluted in dimethyl sulfoxide (3000 μM to 0.0078 μM; resulting final concentrations in the test: 50 μM to 0.00013 μM). 1 μl of the diluted substance solutions is placed into each of the wells of white microtitre plates from Greiner (384 wells). 20 μl of assay buffer (50 mM Tris/HCl pH 7.4; 100 mM sodium chloride solution; 5 mM calcium chloride solution; 0.1% of bovine serum albumin) and 20 μl of plasma kallikrein from Kordia (0.6 nM in assay buffer) are then added successively. After 15 min of incubation, the enzyme reaction is started by addition of 20 μl of the substrate H-Pro-Phe-Arg-AMC dissolved in assay buffer (10 μM in assay buffer) from Bachem, the mixture is incubated at room temperature (22° C.) for 30 min and fluorescence is then measured (excitation: 360 nm, emission: 460 nm). The measured emissions of the test batches with test substance are compared to those of control batches without test substance (only dimethyl sulfoxide instead of test substance in dimethyl sulfoxide), and IC50 values are calculated from the concentration/activity relationships. Activity data from this test are given in Table B below (in some cases as averages from multiple individual determinations): […]

SMILES strings stand for the structures.

T2 sequence (P03952 391-638 limits assumed): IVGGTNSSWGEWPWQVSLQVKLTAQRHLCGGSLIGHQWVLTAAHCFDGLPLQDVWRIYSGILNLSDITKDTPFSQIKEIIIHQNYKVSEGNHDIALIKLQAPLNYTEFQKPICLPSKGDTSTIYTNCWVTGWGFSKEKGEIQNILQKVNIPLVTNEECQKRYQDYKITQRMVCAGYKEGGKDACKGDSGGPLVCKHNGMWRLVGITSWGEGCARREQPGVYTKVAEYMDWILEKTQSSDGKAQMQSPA
T2 sequence (P03952 20-390 partner limits assumed): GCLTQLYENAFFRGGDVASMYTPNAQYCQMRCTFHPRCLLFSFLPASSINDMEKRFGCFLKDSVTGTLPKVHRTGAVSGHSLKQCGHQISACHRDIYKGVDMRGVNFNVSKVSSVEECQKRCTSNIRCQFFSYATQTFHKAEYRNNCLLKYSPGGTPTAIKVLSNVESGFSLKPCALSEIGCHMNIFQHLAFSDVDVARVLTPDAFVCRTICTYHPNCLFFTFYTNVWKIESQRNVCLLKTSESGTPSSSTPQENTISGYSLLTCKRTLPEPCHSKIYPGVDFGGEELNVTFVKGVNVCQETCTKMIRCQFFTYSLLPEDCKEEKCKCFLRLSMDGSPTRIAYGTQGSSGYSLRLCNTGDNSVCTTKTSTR
T1 sequence (P03951 388-625 limits assumed): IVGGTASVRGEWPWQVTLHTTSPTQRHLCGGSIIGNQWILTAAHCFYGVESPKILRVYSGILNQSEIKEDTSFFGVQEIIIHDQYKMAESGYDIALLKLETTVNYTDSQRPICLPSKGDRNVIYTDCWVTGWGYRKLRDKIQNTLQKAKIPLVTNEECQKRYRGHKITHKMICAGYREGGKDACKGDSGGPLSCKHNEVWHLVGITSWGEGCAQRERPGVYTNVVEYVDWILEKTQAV
T1 sequence (P03951 19-387 partner limits assumed): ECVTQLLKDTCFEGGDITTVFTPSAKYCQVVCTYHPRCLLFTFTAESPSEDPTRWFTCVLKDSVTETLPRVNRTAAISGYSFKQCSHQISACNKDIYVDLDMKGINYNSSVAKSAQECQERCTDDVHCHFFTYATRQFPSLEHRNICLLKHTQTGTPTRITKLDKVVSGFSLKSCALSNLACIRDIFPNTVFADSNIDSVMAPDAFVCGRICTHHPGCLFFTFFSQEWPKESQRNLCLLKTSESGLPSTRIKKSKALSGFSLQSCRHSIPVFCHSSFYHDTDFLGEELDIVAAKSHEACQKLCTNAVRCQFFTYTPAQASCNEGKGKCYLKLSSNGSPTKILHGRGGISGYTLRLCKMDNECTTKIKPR

In general, IC50 refers to the concentration that inhibits the measured activity by half. Read a high IC50 as weaker potency in that assay. Regarding `COc1cn([C@@H](CCOC(C)(C)C)C(=O)Nc2ccc3nc(C(=O)O)cn3c2)c(=O)cc1-c1cc(Cl)ccc1OCC(F)(F)F` (single isomer, unassigned) [Example 71, 6-{[4-tert-Butoxy-2-{4-[5-chloro-2-(2,2,2-trifluoroethoxy)phenyl]-5-methoxy-2-oxopyridin-1(2H)-yl}butanoyl]amino}imidazo[1,2-a]pyridine-2-carboxylic acid], the results for the IC50 on human factor XIa and against human plasma kallikrein were 0.93 nM and 10 nM, respectively.
For `CNC(=O)c1ccc(NC(=O)C(CC2COCCO2)n2cc(OC)c(-c3cc(Cl)ccc3OCC(F)F)cc2=O)cn1` (stereo not drawn) [Example 31, 5-{[2-{4-[5-Chloro-2-(2,2-difluoroethoxy)phenyl]-5-methoxy-2-oxopyridin-1(2H)-yl}-3-(1,4-dioxan-2-yl)propanoyl]amino}-N-methylpyridine-2-carboxamide], in that order: 7.1 nM and 120 nM.
The corresponding values for `COc1cn(C(CC2COCCO2)C(=O)Nc2ccc3nn(C)cc3c2)c(=O)cc1-c1cc(Cl)ccc1OCCF` (stereo not drawn) [Example 48, 2-{4-[5-Chloro-2-(2-fluoroethoxy)phenyl]-5-methoxy-2-oxopyridin-1(2H)-yl}-3-(1,4-dioxan-2-yl)-N-(2-methyl-2H-indazol-5-yl)propanamide] are 15 nM and 150 nM.
For `CCCC(C(=O)Nc1ccc2nccnc2c1)n1cc(OC)c(-c2cc(Cl)ccc2OCC(F)(F)F)cc1=O` (racemic) [Example 64, N-(Quinoxalin-6-yl)-2-{4-[5-chloro-2-(2,2,2-trifluoroethoxy)phenyl]-5-methoxy-2-oxopyridin-1(2H)-yl}pentanamide], in that order: 36 nM and 59 nM.
As to `COc1cn([C@@H](CCOC(C)(C)C)C(=O)Nc2ccc(C(=O)O)s2)c(=O)cc1-c1cc(Cl)ccc1OCC(F)(F)F` (single isomer, unassigned) [Example 69, 5-{[4-tert-Butoxy-2-{4-[5-chloro-2-(2,2,2-trifluoroethoxy)phenyl]-5-methoxy-2-oxopyridin-1(2H)-yl}butanoyl]amino}thiophene-2-carboxylic acid], the figures for the IC50 at human factor XIa and on human plasma kallikrein were 0.88 nM and 8.9 nM, respectively.
The corresponding values for `COc1cn(C(CCOC(C)(C)C)C(=O)Nc2ccc(C(=O)O)cc2)c(=O)cc1-c1cc(Cl)ccc1OCC(F)(F)F` (racemic) [Example 7, 4-[(4-tert-Butoxy-2-{4-[5-chloro-2-(2,2,2-trifluoroethoxy)phenyl]-5-methoxy-2-oxopyridin-1(2H)-yl}butanoyl)amino]benzoic acid] are 0.71 nM and 34 nM.
For `COc1cn(C(CC2COCCO2)C(=O)Nc2ccc(C(N)=O)nc2)c(=O)cc1-c1cc(Cl)ccc1OCC(F)(F)F` (stereo not drawn) [Example 18, 5-{[2-{4-[5-Chloro-2-(2,2,2-trifluoroethoxy)phenyl]-5-methoxy-2-oxopyridin-1(2H)-yl}-3-(1,4-dioxan-2-yl)propanoyl]amino}pyridine-2-carboxamide], in that order: 3.2 nM and 55 nM.
For `COc1cn(C(CCOC(C)C)C(=O)Nc2ccc(C(=O)O)cc2)c(=O)cc1-c1cc(Cl)ccc1OCC(F)(F)F` (racemic) [Example 34, 4-[(2-{4-[5-Chloro-2-(2,2,2-trifluoroethoxy)phenyl]-5-methoxy-2-oxopyridin-1(2H)-yl}-4-isopropoxybutanoyl)amino]benzoic acid], in that order: 1.9 nM and 45 nM.
In the case of `COCCC(C(=O)Nc1ccc(C(N)=O)c(F)c1)n1cc(OC)c(-c2cc(Cl)ccc2OCC(F)(F)F)cc1=O` (racemic) [Example 3, 4-[(2-{4-[5-Chloro-2-(2,2,2-trifluoroethoxy)phenyl]-5-methoxy-2-oxopyridin-1(2H)-yl}-4-methoxybutanoyl)amino]-2-fluorobenzamide], the values for the IC50 on human factor XIa and on human plasma kallikrein were 14 nM and 100 nM, respectively.
As for `COc1cn(C(C[C@@H]2CCCCO2)C(=O)Nc2ccc(C(N)=O)c(F)c2)c(=O)cc1-c1cc(Cl)ccc1OCC(F)(F)F` (stereo partly drawn) [Example 53, 4-[(2-{4-[5-Chloro-2-(2,2,2-trifluoroethoxy)phenyl]-5-methoxy-2-oxopyridin-1(2H)-yl}-3-[(2S)-tetrahydro-2H-pyran-2-yl]propanoyl)amino]-2-fluorobenzamide], the IC50 against human factor XIa was 9.3 nM; against human plasma kallikrein it was 210 nM.
For `COc1cn(C(CC2COCCO2)C(=O)Nc2ccc(C(=O)O)cc2)c(=O)cc1-c1cc(Cl)ccc1OCC(F)(F)F` (stereo not drawn) [Example 17, 4-{[2-{4-[5-Chloro-2-(2,2,2-trifluoroethoxy)phenyl]-5-methoxy-2-oxopyridin-1(2H)-yl}-3-(1,4-dioxan-2-yl)propanoyl]amino}benzoic acid], in that order: 0.82 nM and 47 nM.
With `COc1cn(C(CC2COCCO2)C(=O)Nc2ccc(C(=O)O)cc2)c(=O)cc1-c1cc(Cl)ccc1OCCF` (stereo not drawn) [Example 44, 4-{[2-{4-[5-Chloro-2-(2-fluoroethoxy)phenyl]-5-methoxy-2-oxopyridin-1(2H)-yl}-3-(1,4-dioxan-2-yl)propanoyl]amino}benzoic acid], the IC50 at human factor XIa turned out to be 3 nM; against human plasma kallikrein it was 320 nM.
The corresponding values for `COCCC(C(=O)Nc1ccc2nn(C)cc2c1)n1cc(OC)c(-c2cc(Cl)ccc2OCC(F)(F)F)cc1=O` (racemic) [Example 5, 2-{4-[5-Chloro-2-(2,2,2-trifluoroethoxy)phenyl]-5-methoxy-2-oxopyridin-1(2H)-yl}-4-methoxy-N-(2-methyl-2H-indazol-5-yl)butanamide] are 4.1 nM and 33 nM.
The corresponding values for `COc1cn(C(CCOC(C)C)C(=O)Nc2ccc(C(N)=O)c(F)c2)c(=O)cc1-c1cc(Cl)ccc1OCC(F)(F)F` (racemic) [Example 41, 4-[(2-{4-[5-Chloro-2-(2,2,2-trifluoroethoxy)phenyl]-5-methoxy-2-oxopyridin-1(2H)-yl}-4-isopropoxybutanoyl)amino]-2-fluorobenzamide] are 25 nM and 130 nM.
In the case of `CNC(=O)c1ccc(NC(=O)C(CC2COCCO2)n2cc(OC)c(-c3cc(Cl)ccc3OCCF)cc2=O)cn1` (stereo not drawn) [Example 46, 5-{[2-{4-[5-Chloro-2-(2-fluoroethoxy)phenyl]-5-methoxy-2-oxopyridin-1(2H)-yl}-3-(1,4-dioxan-2-yl)propanoyl]amino}-N-methylpyridine-2-carboxamide], the IC50 at human factor XIa worked out at 8.9 nM; against human plasma kallikrein, 150 nM.
The corresponding values for `COc1cn(C(CC2COCCO2)C(=O)Nc2ccc(C(N)=O)nc2)c(=O)cc1-c1cc(Cl)ccc1OCC(F)F` (stereo not drawn) [Example 30, 5-{[2-{4-[5-Chloro-2-(2,2-difluoroethoxy)phenyl]-5-methoxy-2-oxopyridin-1(2H)-yl}-3-(1,4-dioxan-2-yl)propanoyl]amino}pyridine-2-carboxamide] are 4.7 nM and 74 nM.
As to `CNC(=O)c1ccc(NC(=O)C(C[C@H]2CCCCO2)n2cc(OC)c(-c3cc(Cl)ccc3OCC(F)(F)F)cc2=O)cn1` (stereo partly drawn) [Example 22, 5-[(2-{4-[5-Chloro-2-(2,2,2-trifluoroethoxy)phenyl]-5-methoxy-2-oxopyridin-1(2H)-yl}-3-[(2R)-tetrahydro-2H-pyran-2-yl]propanoyl)amino]-N-methylpyridine-2-carboxamide], the IC50 was found to be 18 nM against human factor XIa and 170 nM against human plasma kallikrein.
In the case of `COc1cn(C(C[C@@H]2CCCCO2)C(=O)Nc2ccc(C(N)=O)nc2)c(=O)cc1-c1cc(Cl)ccc1OCC(F)(F)F` (stereo partly drawn) [Example 54], the concentration for half-maximal inhibition (IC50) stood at 3 nM on human factor XIa and 90 nM against human plasma kallikrein.
